From US4753925A, “Antibacterial 1,7-diamino-1,4-dihydro-4-oxo-3-quinolinecarboxylic acids” (Bayer Aktiengesellschaft, priority 1984, dated 1988)
≈ marks a conversion by molar mass, not a printed value.

Columns and labels:
[1] = tested on: Proteus mir. 8223; assay: MIC, agar dilution test/Isosensitest medium; format: cell-based; conditions: agar dilution test, Isosensitest medium
Description: (§1) In most cases the values are identical, but for some strains they are about 2-4 times better.
(§2) Agar dilution test/Isosensitest medium

[2] = tested on: Klebsiella 6179; assay: MIC, agar dilution test/Isosensitest medium; format: cell-based; conditions: agar dilution test, Isosensitest medium
Description: as §1, §2

[3] = tested on: Klebsiella 57 USA; assay: MIC, agar dilution test/Isosensitest medium; format: cell-based; conditions: agar dilution test, Isosensitest medium
Description: as §1, §2

[4] = tested on: Pseudomonas W.; assay: MIC, agar dilution test/Isosensitest medium; format: cell-based; conditions: agar dilution test, Isosensitest medium
Description: as §1, §2

[5] = tested on: Proteus mir. 8175; assay: MIC, agar dilution test/Isosensitest medium; format: cell-based; conditions: agar dilution test, Isosensitest medium
Description: as §1, §2

[6] = tested on: E. coli A 261; assay: MIC, agar dilution test/Isosensitest medium; format: cell-based; conditions: Escherichia coli, A261, agar dilution test, Isosensitest medium
Description: as §1, §2

[7] = tested on: E. coli 455/7; assay: MIC, agar dilution test/Isosensitest medium; format: cell-based; conditions: Escherichia coli, agar dilution test, Isosensitest medium
Description: as §1, §2

[8] = tested on: Providencia 12052; assay: MIC, agar dilution test/Isosensitest medium; format: cell-based; conditions: agar dilution test, Isosensitest medium
Description: as §1, §2

[9] = Serum levels in mice following subcutaneous administration; format: in vivo; conditions: mouse, sc, 5 mg/kg, read-out: Serum level; for concentration at 0.25 h: 15'; for concentration at 0.5 h: 30'
Protocol: as §1
Serum levels in mice following subcutaneous
administration of 5 mg/kg

[10] = Serum levels in mice after oral administration; format: in vivo; conditions: mouse, 5 mg/kg, read-out: Serum level; for concentration at 0.25 h: 15'; for concentration at 0.5 h: 30'
Description: as §1
Serum levels in mice after oral administration

[11] = tested on: strains of Table 1; assay: MIC comparison over the strains of Table 1; format: cell-based; conditions: versus II
Description: as §1, §2

[12] = Pharmacokinetics in mice following oral and parenteral administration; format: in vivo; conditions: versus II
Description: as §1

Structure (SMILES) | MIC [1] [µg/mL] | MIC [2] [µg/mL] | MIC [3] [µg/mL] | MIC [4] [µg/mL] | MIC [5] [µg/mL] | MIC [6] [µg/mL] | MIC [7] [µg/mL] | MIC [8] [µg/mL] | concentration at 0.25 h [9] [ng/mL] | concentration at 0.5 h [9] [ng/mL] | concentration at 1 h [9] [ng/mL] | concentration at 2 h [9] [ng/mL] | concentration at 0.25 h [10] [ng/mL] | concentration at 0.5 h [10] [ng/mL] | concentration at 1 h [10] [ng/mL] | concentration at 2 h [10] [ng/mL] | MIC values compared with II: times better ([11]; for some strains) | MIC values compared with II ([11]; in most cases) | Bioavailability compared with the comparison product ([12]; following oral and parenteral administration) | Serum levels compared with the comparison product ([12]; mice, oral and parenteral)
CNn1cc(C(=O)O)c(=O)c2cc(F)c(N3CCN(C)CC3)cc21 [II, reference compound] | 4 (≈ 12 µM) | 0.25 (≈ 0.748 µM) | 0.25 (≈ 0.748 µM) | 1 (≈ 2.99 µM) | 0.125 (≈ 0.374 µM) | 0.06 (≈ 0.179 µM) | 8 (≈ 23.9 µM) | 16 (≈ 47.9 µM) | 840 | 1300 | 450 | 100 | 700 | 580 | 320 | 100 | – | – | – | –
CNn1cc(C(=O)O)c(=O)c2cc(F)c(N3CCN(C)CC3)c(F)c21 [Example 3] | 4 (≈ 11.4 µM) | 0.125 (≈ 0.355 µM) | 0.125 (≈ 0.355 µM) | 1 (≈ 2.84 µM) | 0.25 (≈ 0.71 µM) | 0.06 (≈ 0.17 µM) | 8 (≈ 22.7 µM) | 4 (≈ 11.4 µM) | 1200 | 1400 | 920 | 300 | 900 | 1200 | 600 | 250 | 2-4 times | identical | better bioavailability | higher serum levels
